# Key:
# [1] = system: MAO-B-deficient human neuroblastoma SH-SY5Y cells; experiment: Transmembrane potential of mitochondria (MitoPT kit) in MPP+-treated cells; format: cell-based; conditions: 2 mM MPP+, 24 hours, FIG. 16
# Experimental: In this embodiment, MAO-B-deficient human neuroblastoma SH-SY5Y cells (Korean Cell Line Bank) were used. The cells were incubated in a DMEM medium in 5% of CO2 at 37° C. for 24 hours. The cultured cells were divided into five groups, 2 mM of 1-methyl-4-phenyl-pyridium (MPP^+) was added to each group, three of the five groups were respectively treated with 1 nM, 10 nM and 50 nM of CBI, one of the other two groups was treated with 10 nM of rasagiline, and the CBI- or rasagiline-treated four groups were further incubated in 5% of CO2 at 37° C. for 24 hours. The group with only MPP^+ added thereto was incubated under the same conditions as describe dabove. Subsequently, according to manufacturer's protocols, the transmembrane potential of mitochondria was determined using MitoPT™ kit (Immunochemistry Technology). The transmembrane potential of mitochondria was confirmed using a fluorescent plate reader (Tecan, Austria). […] Thus, RFU values (red fluorescence value/green fluorescence value) were determined from the results, and the results are shown in FIG. 16.
# [2] = system: MAO-B-deficient human neuroblastoma SH-SY5Y cells; experiment: Apoptosis induced by serum starvation in neuroblastoma cells; format: cell-based; conditions: serum-free medium, FIG. 9
# Experimental: In this embodiment, MAO-B-deficient human neuroblastoma SH-SY5Y cells (Korean Cell Line Bank) were used. Apoptosis of the human neuroblastoma cells was induced by serum starvation. The MAO-B-deficient human neuroblastoma SH-SY5Y cells cultured in a normal medium were distributed into a 6-well plate at a concentration of 1.8×10^5 cells/well and incubated for 1 day, the medium was exchanged with a serum-free medium containing CBI (0.1, 1 and 10), a serum-free medium containing rasagiline (0.1, 1 and 10), or a serum-free medium containing neither CBI or rasagiline, and the cell was further incubated in 5% CO2 at 37° C. for 48 hours.
# MPTP-induced mouse = experiment: Number of neurites and spines per neuron in MPTP-induced mouse (confocal microscopy); format: in vivo, C57BL/6 mice; conditions: 1 mg/kg oral once a day for 10 days after MPTP
# Experimental: To observe whether or not the number of neurites and spines per neuron in the tissues was increased, a coronal slice with a thickness of 200 um containing striatum or substantia nigra was prepared using a vibratome. Each group of mice was sacrificed, and the brain was taken out of each group and then placed in a cold, highly-concentrated sucrose dissection buffer bubbled with carbogen (5% CO2 and 95% O2) (87 mM NaCl, 2.5 mM KCl, 1.25 mM NaH2PO4, 25 mM NaHCO3, 1 mM CaCl2, 3 mM MgCl2, 10 mM dextrose, and 75 mM sucrose). While the vibratome was performed, a slicing chamber was filled with the uniformly carbogenated sucrose dissection buffer. After the slicing process was terminated, all the slices were washed with PBS, and fixed with 4% paraformaldehyde in a PBS solution. The fixed brain slices were placed on a 1.5% agarose (in PBS) block. Images thereof were obtained using a confocal microscope (ZEISS LSM 510 META) by using Zeiss LSM image browser software (Carl Zeiss Microimaging, Germany, version 4.0 SP2).
# catalase = experiment: Activity of catalase in striatum and substantia nigra of mouse; format: in vivo, C57BL/6 mice; conditions: 1 mg/kg oral for 8 days, no neurotoxin, FIG. 22
# Experimental: (§1) Next day after the last day of administration, striatum and substantia nigra tissues were taken out of each group of mice. Cell extracts were obtained from the cells of the tissues, and thus the activities of the catalase, SOD and GPx were measured.
# SOD = experiment: Activity of SOD in striatum and substantia nigra of mouse; format: in vivo, C57BL/6 mice; conditions: 1 mg/kg oral for 8 days, no neurotoxin; FIG. 22
# Experimental: as §1
# dopamine transporter = experiment: Dopamine transporter binding assay ([125I]PE2I) on striatum sections of MPTP-induced monkey; format: in vivo, Macaque monkeys; conditions: FIG. 2
structure (smiles),measurement,setting,value
"NC(=O)OCc1cc(-c2ccc(OCc3ccccc3)cc2)no1 [CBI, carbamic acid 3-(4-benzyloxy-phenyl)-isoxazole-5-yl methylester]",transmembrane potential of mitochondria,"[1]; 1 nM, 10 nM and 50 nM",stabilized concentration-dependently
same,stability effect of the transmembrane potential of mitochondria relative to same concentration of rasagiline,[1]; rasagiline 10 nM,no less than 2 times
same,higher extent of a decrease in the apoptosis of neurons than with 10 of rasagiline,"[2]; 10 (unit not given), 48 hours",about 33%
same,extent of the apoptosis of neurons,"[2]; 48 hours, 0.1, 1 and 10 (unit not given)",decreased
same,number of neurites,MPTP-induced mouse; FIG. 23,increased
same,number of spines,MPTP-induced mouse; FIG. 24,recovered to the level of normal cells
same,increase of the activity of the catalase in the striatum,catalase,about 13%
same,activity of the SOD,SOD,no significant change
same,dopamine transporters in medial striatum and caudal striatum,dopamine transporter; 1 mg/kg oral for 4 weeks after MPTP,a large number of dopamine transporters
same,amount of dopamine transporters compared with rasagiline group,dopamine transporter; same amount (1 mg/kg) of rasagiline,significantly larger amount of dopamine transporters
